In the assay the test system is T1, rPsGrx.
T1 construct: gene PsGrx; active site C12-P-F-C15 (abstract prints CPYC)
Briefly: GSH-dependent HED reduction coupled to yeast glutathione reductase, NADPH consumption at […] nm; Lineweaver-Burk. The class given is biochemical, Pseudoalteromonas sp. AN178. The conditions noted are these: HED 0.4 to 8 mM, 1 mM GSH fixed, yeast GR, apparent Km, standard assay at 25°C.

Each structure is given as a SMILES string.

In general, Km refers to the substrate concentration at which the rate is half of its maximum.

As to `OCCSSCCO` [HED], the Km is 460 µM.
